The NIST ThermoML archive (doi:10.1016/j.jct.2007.11.011)
± gives the expanded uncertainty stated by the source.

Test: xn = mol fraction of the nth substance listed
Conditions: Liquid

CCOS(=O)(=O)[O-].CCn1cc[n+](C)c1 [1-ethyl-3-methylimidazolium ethyl sulfate] + CO
mass density [kg/m3]
Conditions | 100 kPa | 2500 kPa | 5000 kPa | 10000 kPa | 15000 kPa | 20000 kPa | 25000 kPa | 30000 kPa | 35000 kPa
293.15 K, x1 = 0.04781 | – | – | – | – | – | – | – | 907.55 ± 1.1 | 910.71 ± 1.1
293.15 K, x1 = 0.1026 | – | – | – | – | – | – | – | 979.27 ± 0.54 | 982.13 ± 0.55
293.15 K, x1 = 0.1977 | – | – | – | – | – | – | – | 1060.75 ± 0.81 | 1063.26 ± 0.89
293.15 K, x1 = 0.2432 | – | – | – | – | – | – | – | 1088.79 ± 1 | 1091.21 ± 1.1
293.15 K, x1 = 0.3026 | – | – | – | – | – | – | – | 1119.01 ± 1.3 | 1121.32 ± 1.5
293.15 K, x1 = 0.3887 | – | – | – | – | – | – | – | 1151.75 ± 1.6 | 1153.96 ± 1.8
293.15 K, x1 = 0.485 | – | – | – | – | – | – | – | 1179.09 ± 1.9 | 1181.21 ± 2.1
293.15 K, x1 = 0.589 | – | – | – | – | – | – | – | 1201.26 ± 2.1 | 1203.3 ± 2.3
293.15 K, x1 = 0.7289 | – | – | – | – | – | – | 1221.94 ± 2 | 1223.92 ± 2.3 | 1225.88 ± 2.6
293.15 K, x1 = 0.8521 | – | – | – | – | – | – | 1236.51 ± 2.1 | 1238.43 ± 2.4 | 1240.37 ± 2.7
293.15 K, x1 = 0.9397 | – | – | – | – | – | – | 1245.42 ± 2.2 | 1247.34 ± 2.5 | 1249.28 ± 2.8
298.15 K, x1 = 0.04781 | 881.9 ± 0.59 | 883.82 ± 0.63 | 885.81 ± 0.67 | 889.63 ± 0.76 | 893.33 ± 0.84 | 896.87 ± 0.92 | 900.3 ± 1 | 903.63 ± 1.1 | 906.81 ± 1.2
298.15 K, x1 = 0.1026 | 956.23 ± 0.49 | 957.85 ± 0.5 | 959.6 ± 0.51 | 962.97 ± 0.53 | 966.22 ± 0.54 | 969.37 ± 0.55 | 972.43 ± 0.56 | 975.41 ± 0.57 | 978.3 ± 0.57
298.15 K, x1 = 0.1977 | 1040.54 ± 0.5 | 1041.91 ± 0.52 | 1043.39 ± 0.53 | 1046.26 ± 0.57 | 1049.05 ± 0.61 | 1051.78 ± 0.66 | 1054.44 ± 0.72 | 1057.05 ± 0.79 | 1059.58 ± 0.86
298.15 K, x1 = 0.2432 | 1069.25 ± 0.53 | 1070.58 ± 0.56 | 1071.99 ± 0.58 | 1074.73 ± 0.65 | 1077.43 ± 0.72 | 1080.03 ± 0.8 | 1082.59 ± 0.9 | 1085.11 ± 0.99 | 1087.54 ± 1.1
298.15 K, x1 = 0.3026 | 1100.31 ± 0.57 | 1101.59 ± 0.61 | 1102.92 ± 0.66 | 1105.51 ± 0.75 | 1108.07 ± 0.86 | 1110.55 ± 0.98 | 1112.96 ± 1.1 | 1115.37 ± 1.3 | 1117.69 ± 1.4
298.15 K, x1 = 0.3887 | 1134.01 ± 0.63 | 1135.21 ± 0.68 | 1136.46 ± 0.74 | 1138.92 ± 0.87 | 1141.32 ± 1 | 1143.68 ± 1.2 | 1145.98 ± 1.4 | 1148.26 ± 1.6 | 1150.46 ± 1.8
298.15 K, x1 = 0.485 | 1162.03 ± 0.67 | 1163.15 ± 0.74 | 1164.36 ± 0.82 | 1166.69 ± 0.98 | 1168.99 ± 1.2 | 1171.24 ± 1.4 | 1173.44 ± 1.6 | 1175.62 ± 1.8 | 1177.74 ± 2.1
298.15 K, x1 = 0.589 | 1184.83 ± 0.71 | 1185.86 ± 0.79 | 1187.01 ± 0.88 | 1189.25 ± 1.1 | 1191.45 ± 1.3 | 1193.61 ± 1.6 | 1195.76 ± 1.8 | 1197.87 ± 2 | 1199.91 ± 2.3
298.15 K, x1 = 0.7289 | 1207.95 ± 0.75 | 1208.92 ± 0.84 | 1210.02 ± 0.94 | 1212.17 ± 1.2 | 1214.29 ± 1.4 | 1216.37 ± 1.7 | 1218.42 ± 2 | 1220.46 ± 2.2 | 1222.43 ± 2.5
298.15 K, x1 = 0.8521 | 1222.76 ± 0.78 | 1223.17 ± 0.88 | 1224.62 ± 0.99 | 1226.79 ± 1.3 | 1228.88 ± 1.5 | 1230.93 ± 1.8 | 1232.93 ± 2.1 | 1234.93 ± 2.4 | 1236.86 ± 2.7
298.15 K, x1 = 0.9397 | 1231.87 ± 0.8 | 1232.94 ± 0.9 | 1234.01 ± 1 | 1236.07 ± 1.3 | 1238.12 ± 1.6 | 1240.12 ± 1.9 | 1242.11 ± 2.2 | 1244.08 ± 2.5 | 1245.99 ± 2.8
303.15 K, x1 = 0.04781 | 877.37 ± 0.59 | 879.39 ± 0.64 | 881.43 ± 0.68 | 885.44 ± 0.77 | 890.01 ± 0.86 | – | – | – | –
303.15 K, x1 = 0.1026 | 951.86 ± 0.5 | 953.61 ± 0.51 | 955.38 ± 0.52 | 958.89 ± 0.54 | 962.19 ± 0.56 | – | – | – | –
303.15 K, x1 = 0.1977 | 1036.37 ± 0.5 | 1037.84 ± 0.51 | 1039.36 ± 0.53 | 1042.38 ± 0.56 | 1045.21 ± 0.6 | – | – | – | –
303.15 K, x1 = 0.2432 | 1065.2 ± 0.53 | 1066.61 ± 0.55 | 1068.04 ± 0.58 | 1070.92 ± 0.64 | 1073.64 ± 0.71 | – | – | – | –
303.15 K, x1 = 0.3026 | 1096.34 ± 0.57 | 1097.65 ± 0.61 | 1099 ± 0.65 | 1101.75 ± 0.74 | 1104.31 ± 0.84 | – | – | – | –
303.15 K, x1 = 0.3887 | 1130.14 ± 0.62 | 1131.4 ± 0.67 | 1132.67 ± 0.73 | 1135.24 ± 0.86 | – | – | – | – | –
303.15 K, x1 = 0.485 | 1158.24 ± 0.67 | 1159.4 ± 0.73 | 1160.61 ± 0.81 | 1163.06 ± 0.97 | – | – | – | – | –
303.15 K, x1 = 0.589 | 1181.07 ± 0.7 | 1182.15 ± 0.78 | 1183.33 ± 0.87 | 1185.69 ± 1.1 | – | – | – | – | –
303.15 K, x1 = 0.7289 | 1204.24 ± 0.74 | 1205.29 ± 0.83 | 1206.4 ± 0.93 | 1208.67 ± 1.2 | – | – | – | – | –
303.15 K, x1 = 0.8521 | 1219.11 ± 0.77 | 1220.12 ± 0.87 | 1221.21 ± 0.98 | 1223.41 ± 1.2 | – | – | – | – | –
303.15 K, x1 = 0.9397 | 1228.28 ± 0.79 | 1229.37 ± 0.89 | 1230.44 ± 1 | 1232.62 ± 1.3 | – | – | – | – | –
